Source: publication PMC5316403, “A multicenter assessment of single-cell models aligned to standard measures of cell health for prediction of acute hepatotoxicity” (Archives of Toxicology, 2016)
Like-named read-outs stand apart in the source and are kept apart here.

Legend:
[1] = test system: man; conditions: cited from earlier work
[2] = parameters: method as in references provided in Table 4; conditions: therapeutic concentrations, used to calculate EC50/Cmax; ref references provided in Table 4; cited from earlier work
[3] = test system: primary human hepatocytes (PHH); assay: Cytotoxicity (intracellular ATP, CellTiter Glo) in primary human hepatocytes; type: cell-based; conditions: cryopreserved PHH, 24 or 72 h, all test sites, up to highest dose
Method: Cryopreserved PHH from five donors were provided by KaLy-Cell (Plobsheim, France). […] Cell number and viability were determined by the trypan blue exclusion method, and the cells were plated at a seeding density of 70,000 cells/well of a KaLy-Cell home-coated type I rat tail collagen (10 µg/well) 96-well plate. […]
(§1) The CellTiter Glo assay kit (Promega, Madison, WI, USA) was used to determine the ATP content in the cells after exposure to the thirteen compounds for 24 or 72 h. […] The supernatant samples were transferred into opaque flat-bottomed 96-well plates (Greiner-Bio-One, Frickenhausen, Germany) and the luminescence measured.
(§2) Cell viability was determined as the percentage of the fluorescent resorufin after incubation with resazurin in the treated cells compared with vehicle control or the percentage of ATP detected in the treated cells compared with vehicle control. Individual EC50 values from all participants were calculated using GraphPad Prism 6 (version 6.03) at one partner site. […]

[4] = test system: HepG2/ECACC cells; assay: Cytotoxicity (intracellular ATP, CellTiter Glo) in HepG2/ECACC cells; type: cell-based, human; conditions: 24 or 72 h, all test sites, up to highest dose
Method: A specific clone of HepG2 cells was purchased from the European Collection of Cell Cultures (ECACC). The cells were cultivated and low passage frozen stocks were generated and banked by one MIP-DILI partner designated as the cell bank. The cells were distributed to the relevant MIP-DILI partners. […] Cell number and viability were determined using the trypan blue exclusion method, and the cells were plated at a seeding density of 20,000 cells/well in BD Biocoat Collagen I 96-well plates (Beckton Dickinson, New Jersey, USA). […]
as §1, §2

[5] = test system: cryopreserved HepaRG cells; assay: Cytotoxicity (intracellular ATP, CellTiter Glo) in cryopreserved HepaRG cells; type: cell-based, human; conditions: 24 or 72 h, all test sites, up to highest dose
Method: Differentiated cryopreserved HepaRG cells were purchased from Biopredic International (Saint-Gregoire, France). The cells were thawed in Thawing/Plating Medium [Williams’ Medium E supplemented with 1 % penicillin/streptomycin, 1 % L-Glutamine, 10 % FCS and 12.5 % ADD670 cocktail (BioPredic International, Saint-Gregoire, France; proprietary medium composition)], centrifuged (500×g; 5 min; room temperature) and then resuspended in fresh Thawing/Plating Medium. After the addition of the ADD670 cocktail, the final DMSO concentration in the Thawing/Plating Medium was 0.5 %. Cell number and viability were determined by the trypan blue exclusion method, and the cells were plated at a seeding density of 72,000 cells/well in white/clear bottom 96-well plates (Beckton Dickinson, New Jersey, USA). […]
as §1
Cell viability was determined as the percentage of the fluorescent resorufin after incubation with resazurin in the treated cells compared with vehicle control or the percentage of ATP detected in the treated cells compared with vehicle control. […]

[6] = test system: Upcyte hepatocytes; assay: Cytotoxicity (intracellular ATP, CellTiter Glo) in Upcyte hepatocytes; type: cell-based, human; conditions: Upcyte cells, 24 or 72 h, all test sites, up to highest dose
Method: The cells were then centrifuged (90×g; 5 min; room temperature) and resuspended in fresh Upcyte High Performance Medium (Medicyte, Heidelberg, Germany). Cell number and viability were determined via the trypan blue exclusion method, and the cells were seeded at 18,750 cells/well in white/clear bottom 96-well plates (Beckton Dickinson, New Jersey, USA). After seeding, the cells were incubated for 72 h (37 °C; 5 % CO2; 95 % air) without additional medium change prior to compound treatment.
The compound concentrations used were chosen as representative for each compound when conducting an in vitro safety assessment study. […] Stock aliquots were stored at −20 °C and only thawed once. […]
as §1, §2

[7] = reported to cause hepatotoxicity in man or not, ref references in Table 4

SMILES | Hepatotoxic/non-hepatotoxic [1, 7] | Cmax [2] | further results
COc1ccccc1Oc1c(NS(=O)(=O)c2ccc(C(C)(C)C)cc2)nc(-c2ncccn2)nc1OCCO [Bosentan] | Hepatotoxic |  | 
O=C1CC2(CCCC2)CC(=O)N1CCCCN1CCN(c2ncccn2)CC1 [Buspirone] | Non-hepatotoxic |  | 
O=C(O)Cc1ccccc1Nc1c(Cl)cccc1Cl [Diclofenac] |  |  | Hepatotoxic/non-hepatotoxic ([1]; in vivo): Hepatotoxic
CCN(CC)C(=O)/C(C#N)=C/c1cc(O)c(O)c([N+](=O)[O-])c1 [Entacapone] | Non-hepatotoxic | 1500 nM | 
CN(C)C(=N)N=C(N)N [Metformin] |  | 7740 nM | 
CCc1nn(CCCN2CCN(c3cccc(Cl)c3)CC2)c(=O)n1CCOc1ccccc1 [Nefazodone] | Hepatotoxic | 859 nM | 
CC(=O)Nc1ccc(O)cc1 [Paracetamol] | Hepatotoxic |  | 
C1CCC(C(CC2CCCCN2)C2CCCCC2)CC1 (stereo not drawn) [Perhexiline] | Hepatotoxic | 1520 nM | 
CCc1ccc(CCOc2ccc(CC3SC(=O)NC3=O)cc2)nc1 (stereo not drawn) [Pioglitazone] | Non-hepatotoxic | 2670 nM | 
Cc1ccc(C(=O)c2cc(O)c(O)c([N+](=O)[O-])c2)cc1 [Tolcapone] | Hepatotoxic | 27800 nM | 
Cc1c(C)c2c(c(C)c1O)CCC(C)(COc1ccc(CC3SC(=O)NC3=O)cc1)O2 (stereo not drawn) [Troglitazone] | Hepatotoxic | 6390 nM | 
CCOC(=O)CN[C@@H](C(=O)N1CC[C@H]1C(=O)NCc1ccc(/C(N)=N\O)cc1)C1CCCCC1 [Ximelagatran] |  |  | toxicity (cell viability) [3]: no toxicity was detected even at the highest doses; toxicity (cell viability) [4]: no toxicity was detected even at the highest doses; toxicity (cell viability) [5]: no toxicity was detected even at the highest doses; toxicity (cell viability) [6]: no toxicity was detected even at the highest doses
